Measured values from ChEMBL document CHEMBL5247620, “Lupane derivatives containing various aryl substituents in the position 3 have selective cytostatic effect in leukemic cancer cells including resistant phenotypes” (Eur J Med Chem, 2022).
Each block holds one compound with its values, some of them ahead of it. Active and inactive are the calls of the source. The calls are words filed in the database; no cut-off is given here.

Key:
CCRF-CEM [1] = assay: Induction of apoptosis in human CCRF-CEM cells assessed as effect on total Rb protein level at 1 times IC50 concentration incubated for 24 hrs by western blot assay; type: functional, cell-based
CCRF-CEM [2] = assay: Induction of apoptosis in human CCRF-CEM cells assessed as decrease in cell number at 1 times IC50 concentration incubated for 24 to 74 hrs by annexin V FITC/propidium iodide staining based flow cytometry; type: functional; details: time 24-74 hrs
[3] = Apparent permeability across apical to basolateral side in human Caco-2 cells assessed as drug recovery incubated for 2 hr by high-throughput spectrometric analysis; type: ADME, cell-based; details: read-out: Drug recovery
[4] = Apparent permeability across apical to basolateral side in human Caco-2 cells incubated for 2 hr by high-throughput spectrometric analysis; type: ADME, cell-based
CCRF-CEM [5] = assay: Induction of apoptosis in human CCRF-CEM cells assessed as viable cells at 1 times IC50 concentration incubated for 24 hrs by annexin V FITC/propidium iodide staining based flow cytometry (reference value: 96 %); type: functional
CCRF-CEM [6] = assay: Induction of apoptosis in human CCRF-CEM cells assessed as late apoptotic cells at 1 times IC50 concentration incubated for 24 hrs by annexin V FITC/propidium iodide staining based flow cytometry (reference value: 1.4 %); type: functional
CCRF-CEM [7] = assay: Induction of cell cycle arrest in human CCRF-CEM cells assessed as accumulation of cells at G1 phase at 1 times IC50 concentration incubated for 24 to 72 hrs by propidium iodide staining based flow cytometry; type: functional; details: time 24-72 hrs
CCRF-CEM [8] = assay: Induction of cell cycle arrest in human CCRF-CEM cells assessed as decrease of cell population at S phase at 1 times IC50 concentration incubated for 24 to 72 hrs by propidium iodide staining based flow cytometry; type: functional; details: time 24-72 hrs
CCRF-CEM [9] = assay: Induction of apoptosis in human CCRF-CEM cells assessed as decrease in cell number at 5 times IC50 concentration incubated for 24 to 74 hrs by annexin V FITC/propidium iodide staining based flow cytometry; type: functional; details: time 24-74 hrs
CEM-DNR = assay: Cytotoxicity against human CEM-DNR cells assessed as inhibition of cell growth incubated for 72 hrs by MTS assay; type: functional, cell-based
[10] = Apparent permeability across apical to basolateral side in dog MDCK-MDR1 cells incubated for 1 hr by high-throughput spectrometric analysis; type: ADME, cell-based, Canis lupus familiaris
CCRF-CEM [11] = assay: Induction of apoptosis in human CCRF-CEM cells assessed as decrease in Rb phosphorylation level at Ser780 at 5 times IC50 concentration incubated for 24 hrs by western blot assay; type: functional, cell-based
[12] = Chemical stability of the compound in PBS buffer assessed as compound remaining at pH 7.4 at 2 uM measured after 120 mins by RF-MS analysis; type: physicochemical; details: read-out: Stability
[13] = Plasma stability in human assessed as compound remaining at 2 uM measured after 60 mins by RF-MS analysis; type: ADME, cell-free; details: read-out: Stability
CCRF-CEM [14] = assay: Induction of apoptosis in human CCRF-CEM cells assessed as early apoptotic cells at 5 times IC50 concentration incubated for 24 hrs by annexin V FITC/propidium iodide staining based flow cytometry (reference value: 2.6 %); type: functional
CCRF-CEM [15] = assay: Induction of apoptosis in human CCRF-CEM cells assessed as early apoptotic cells at 1 times IC50 concentration incubated for 24 hrs by annexin V FITC/propidium iodide staining based flow cytometry (reference value: 2.6 %); type: functional
[16] = Efflux ratio of apparent permeability from basolateral to apical side over apical to basolateral side in dog MDCK-MDR1 cells incubated for 1 hr by high-throughput spectrometric analysis; type: ADME, cell-based, Canis lupus familiaris
[17] = Cytotoxicity against human p53HCT116 cells assessed as inhibition of cell growth incubated for 72 hrs by MTS assay; type: functional, cell-based; details: p53HCT116, 72 h
[18] = Plasma stability in human assessed as compound remaining at 2 uM measured after 15 mins by RF-MS analysis; type: ADME, cell-free; details: read-out: Stability
CCRF-CEM [19] = assay: Induction of apoptosis in human CCRF-CEM cells assessed as effect on total Rb protein level at 5 times IC50 concentration incubated for 24 hrs by western blot assay; type: functional, cell-based
U2OS = assay: Cytotoxicity against human U2OS cells assessed as inhibition of cell growth incubated for 72 hrs by MTS assay; type: functional, cell-based
K562 = assay: Cytotoxicity against human K562 cells assessed as inhibition of cell growth incubated for 72 hrs by MTS assay; type: functional, cell-based; details: K562, 72 h
[20] = Microsomal stability in human liver microsome as compound remaining at 2 uM measured after 30 mins in presence of NADPH by RF-MS analysis; type: ADME; details: liver microsomes, read-out: Stability
[21] = Efflux ratio of apparent permeability from basolateral to apical side over apical to basolateral side in human Caco-2 cells incubated for 2 hr by high-throughput spectrometric analysis; type: ADME, cell-based
[22] = Plasma protein binding in human assessed as fraction bound at 10 uM incubated for 4 hrs by rapid equilibrium dialysis based RF-MS analysis; type: ADME, cell-free; details: read-out: PPB (converted)
[23] = Plasma stability in human assessed as compound remaining at 2 uM measured after 120 mins by RF-MS analysis; type: ADME, cell-free; details: read-out: Stability
[24] = Cytotoxicity against human BJ cells assessed as inhibition of cell growth incubated for 72 hrs by MTS assay; type: toxicity, cell-based
CCRF-CEM [25] = assay: Induction of apoptosis in human CCRF-CEM cells assessed as decrease in cyclin A protein expression level at 5 times IC50 concentration incubated for 24 hrs by western blot assay; type: functional, cell-based
CCRF-CEM [26] = assay: Induction of apoptosis in human CCRF-CEM cells assessed as viable cells at 5 times IC50 concentration incubated for 24 hrs by annexin V FITC/propidium iodide staining based flow cytometry (reference value: 96 %); type: functional
[27] = Chemical stability of the compound in PBS buffer assessed as compound remaining at pH 7.4 at 2 uM measured after 30 mins by RF-MS analysis; type: physicochemical; details: read-out: Stability
CCRF-CEM [28] = assay: Induction of apoptosis in human CCRF-CEM cells assessed as decrease in Bcl-2 protein expression level at 5 times IC50 concentration incubated for 24 hrs by western blot assay; type: functional, cell-based
CCRF-CEM [29] = assay: Induction of cell cycle arrest in human CCRF-CEM cells assessed as accumulation of cells at G1 phase at 5 times IC50 concentration incubated for 24 to 72 hrs by propidium iodide staining based flow cytometry; type: functional; details: time 24-72 hrs
CCRF-CEM [30] = assay: Induction of apoptosis in human CCRF-CEM cells assessed as late apoptotic cells at 5 times IC50 concentration incubated for 24 hrs by annexin V FITC/propidium iodide staining based flow cytometry (reference value: 1.4 %); type: functional
[31] = Microsomal stability in human liver microsome as compound remaining at 2 uM measured after 60 mins in presence of NADPH by RF-MS analysis; type: ADME; details: liver microsomes, read-out: Stability
[32] = Chemical stability of the compound in PBS buffer assessed as compound remaining at pH 7.4 at 2 uM measured after 15 mins by RF-MS analysis; type: physicochemical; details: read-out: Stability
[33] = Cytotoxicity against human MRC5 cells assessed as inhibition of cell growth incubated for 72 hrs by MTS assay; type: toxicity, cell-based
HCT-116 = assay: Cytotoxicity against human HCT-116 cells assessed as inhibition of cell growth incubated for 72 hrs by MTS assay; type: functional, cell-based; details: HCT-116, 72 h
[34] = Microsomal stability in human liver microsome as compound remaining at 2 uM measured after 15 mins in presence of NADPH by RF-MS analysis; type: ADME; details: liver microsomes, read-out: Stability
[35] = Chemical stability of the compound in PBS buffer assessed as compound remaining at pH 7.4 at 2 uM measured after 60 mins by RF-MS analysis; type: physicochemical; details: read-out: Stability
CCRF-CEM [36] = assay: Cytotoxicity against human CCRF-CEM cells assessed as inhibition of cell growth incubated for 72 hrs by MTS assay; type: functional, cell-based
[37] = Cytotoxicity against human K562-Tax cells assessed as inhibition of cell growth incubated for 72 hrs by MTS assay; type: functional, cell-based
CCRF-CEM [38] = assay: Induction of cell cycle arrest in human CCRF-CEM cells assessed as decrease of cell population at S phase at 5 times IC50 concentration incubated for 24 to 72 hrs by propidium iodide staining based flow cytometry; type: functional; details: time 24-72 hrs
A549 = assay: Cytotoxicity against human A549 cells assessed as inhibition of cell growth incubated for 72 hrs by MTS assay; type: functional, cell-based; details: A549, 72 h
[39] = Apparent permeability across apical to basolateral side in dog MDCK-MDR1 cells assessed as drug recovery incubated for 1 hr by high-throughput spectrometric analysis; type: ADME, cell-based, Canis lupus familiaris; details: read-out: Drug recovery
[40] = Plasma stability in human assessed as compound remaining at 2 uM measured after 30 mins by RF-MS analysis; type: ADME, cell-free; details: read-out: Stability
CCRF-CEM [41] = assay: Induction of apoptosis in human CCRF-CEM cells assessed as decrease in Rb phosphorylation level at Ser807/811 at 5 times IC50 concentration incubated for 24 hrs by western blot assay; type: functional, cell-based

recovery at 2 h [3]: 106% | Papp A→B at 2 h [4]: 0.053 ×10⁻⁶ cm/s | Papp A→B at 1 h [10]: 1.73 ×10⁻⁶ cm/s | remaining at 2 h, 2 µM [12]: 96.7% | remaining at 1 h, 2 µM [13]: 82.5% | efflux ratio at 1 h [16]: 7.23 | remaining at 0.25 h, 2 µM [18]: 97.7% | remaining at 0.5 h, 2 µM [20]: 107% | efflux ratio at 2 h [21]: 3.92 | fraction unbound at 4 h, 10 µM [22]: 0.502 | remaining at 2 h, 2 µM [23]: 71.5% | remaining at 0.5 h, 2 µM [27]: 91.7% | remaining at 1 h, 2 µM [31]: 94.8% | remaining at 0.25 h, 2 µM [32]: 95.5% | remaining at 0.25 h, 2 µM [34]: 108% | remaining at 1 h, 2 µM [35]: 91.8% | recovery at 1 h [39]: 31.5% | remaining at 0.5 h, 2 µM [40]: 88.7%
Compound: C=C(C)[C@@H]1CC[C@]2(C(=O)O)CC[C@]3(C)[C@H](CC[C@@H]4[C@@]5(C)CC=C(c6cccc(N)c6)C(C)(C)[C@@H]5CC[C@]43C)[C@@H]12
Activity (CCRF-CEM [1]): inactive | Activity (CCRF-CEM [2]): Active | Activity (CCRF-CEM [5]): 95.2% | Activity (CCRF-CEM [6]): 1.5% | Activity (CCRF-CEM [7]): Active | Activity (CCRF-CEM [8]): Active | Activity (CCRF-CEM [9]): Active | IC50 (CEM-DNR): 8.9 µM | Activity (CCRF-CEM [11]): Active | Activity (CCRF-CEM [14]): 3.4% | Activity (CCRF-CEM [15]): 3.3% | IC50 [17]: 10 µM | Activity (CCRF-CEM [19]): inactive | IC50 (U2OS): 31 µM | IC50 (K562): 36 µM | IC50 at 72 h [24]: 50 µM | Activity (CCRF-CEM [25]): Active | Activity (CCRF-CEM [26]): 94.8% | Activity (CCRF-CEM [28]): Active | Activity (CCRF-CEM [29]): Active | Activity (CCRF-CEM [30]): 1.8% | IC50 at 72 h [33]: 47 µM | IC50 (HCT-116): 12 µM | IC50 (CCRF-CEM [36]): 1.8 µM | IC50 [37]: 9 µM | Activity (CCRF-CEM [38]): Active | IC50 (A549): 9.7 µM | Activity (CCRF-CEM [41]): Active

recovery at 2 h [3]: 97.5% | Papp A→B at 2 h [4]: 2.32 ×10⁻⁶ cm/s | Papp A→B at 1 h [10]: 8.84 ×10⁻⁶ cm/s | remaining at 2 h, 2 µM [12]: 105% | remaining at 1 h, 2 µM [13]: 85.6% | efflux ratio at 1 h [16]: 1.29 | remaining at 0.25 h, 2 µM [18]: 90.3% | remaining at 0.5 h, 2 µM [20]: 97.8% | efflux ratio at 2 h [21]: 1.72 | fraction unbound at 4 h, 10 µM [22]: 0.334 | remaining at 2 h, 2 µM [23]: 86.7% | remaining at 0.5 h, 2 µM [27]: 93.5% | remaining at 1 h, 2 µM [31]: 95.8% | remaining at 0.25 h, 2 µM [32]: 99.6% | remaining at 0.25 h, 2 µM [34]: 99.3% | remaining at 1 h, 2 µM [35]: 102% | recovery at 1 h [39]: 67.6% | remaining at 0.5 h, 2 µM [40]: 87.4%
Compound: C=C(C)[C@@H]1CC[C@]2(C(=O)O)CC[C@]3(C)[C@H](CC[C@@H]4[C@@]5(C)CC=C(c6cccc(O)c6)C(C)(C)[C@@H]5CC[C@]43C)[C@@H]12
Activity (CCRF-CEM [1]): inactive | Activity (CCRF-CEM [2]): Active | Activity (CCRF-CEM [5]): 94.5% | Activity (CCRF-CEM [6]): 2.1% | Activity (CCRF-CEM [7]): Active | Activity (CCRF-CEM [8]): Active | Activity (CCRF-CEM [9]): Active | IC50 (CEM-DNR): 4 µM | Activity (CCRF-CEM [11]): Active | Activity (CCRF-CEM [14]): 6% | Activity (CCRF-CEM [15]): 3.4% | IC50 [17]: 12 µM | Activity (CCRF-CEM [19]): inactive | IC50 (U2OS): 17 µM | IC50 (K562): 19 µM | IC50 at 72 h [24]: 31 µM | Activity (CCRF-CEM [25]): Active | Activity (CCRF-CEM [26]): 89% | Activity (CCRF-CEM [28]): Active | Activity (CCRF-CEM [29]): 20% | Activity (CCRF-CEM [30]): 5% | IC50 at 72 h [33]: 19 µM | IC50 (HCT-116): 4 µM | IC50 (CCRF-CEM [36]): 3.9 µM | IC50 [37]: 3.8 µM | Activity (CCRF-CEM [38]): Active | IC50 (A549): 14 µM | Activity (CCRF-CEM [41]): Active
